Measured values published in EP1144368B1, “ACETYLENIC ALPHA-AMINO ACID-BASED SULFONAMIDE HYDROXAMIC ACID TACE INHIBITORS” (priority 1999, dated 2000).
pIC50: −log10 of the molar value. Structures can show the parent of a compound that is named as a salt. Where two headings read alike, the source gives them in different places.

Assays:
[1] = target: MMP-13 (Homo sapiens, UniProt P45452); assay: MMP-13 inhibition (thiopeptide or fluorescent peptide substrate); format: biochemical
Protocol: (§1) The enzyme activity is measured by the rate of the color increase. The thiopeptide substrate is made up fresh as a 20 mM stock in 100% DMSO and the DTNB is dissolved in 100% DMSO as a 100 mM stock and stored in the dark at room temperature. Both the substrate and DTNB are diluted together to 1 mM with substrate buffer (50 mM HEPES pH 7.5, 5 mM CaCl2) before use. The stock of enzyme is diluted with buffer (50 mM HEPES, pH 7.5, 5 mM CaCl2, 0.02% Brij) to the desired final concentration.
(§2) Alternatively, a fluorescent peptide substrate is used. In this test procedure, the peptide substrate contains a fluorescent group and a quenching group. Upon cleavage of the substrate by an MMP, the fluorescence that is generated is quantitated on the fluorescence plate reader. The assay is run in HCBC assay buffer (50mM HEPES, pH 7.0, 5 mM Ca^+2, 0.02% Brij, 0.5% Cysteine), with human recombinant MMP-1, MMP-9, or MMP-13. The substrate is dissolved in methanol and stored frozen in 1 mM aliquots. For the assay, substrate and enzymes are diluted in HCBC buffer to the desired concentrations. Compounds are added to the 96 well plate containing enzyme and the reaction is started by the addition of substrate.
(§3) For either the thiopeptide or fluorescent peptide test procedures, the slope of the line is calculated and represents the reaction rate. The linearity of the reaction rate is confirmed (r^2 >0.85). The mean (x±sem) of the control rate is calculated and compared for statistical significance (p<0.05) with drug-treated rates using Dunnett's multiple comparison test.

[2] = tested on: THP-1 cells; assay: THP-1 Soluble Protein Assay (LPS-stimulated; ELISA of TNF-a, TNF-R p75/80, TNF-R p55/60, IL-8); format: cell-based, human; settings: for inhibition at 3 µM: Homo sapiens
Protocol: Each vial of cells are cultured for about two weeks prior to being used for an assay and then are used for only 4 to 6 weeks to screen compounds.
Plates are placed into an incubator set at 5% CO2 and at 37° C. After 4 hours of incubation, 300 ml/well of tissue culture supernatant (TCS) is removed for use in an TNF-a ELISA.
Percent change in each soluble protein evaluated from the "vehicle positive control" was calculated for each compound concentration with the following formula: % Change =(pg/ml (compound) - pg/ml (veh pos control))/(pg/ml (veh pos control) - pg/ml (veh neg control))x 100 [formula]
For the soluble protein (TNF-a, p75/80, p55/60, IL-8) studies under stimulated conditions, the mean pg/ml of duplicate wells were determined and the results expressed as percent change from "vehicle positive control".

[3] = target: T1, MMP-1 (Homo sapiens, UniProt P03956); assay: MMP-1 inhibition (thiopeptide or fluorescent peptide substrate); format: biochemical
T1 sequence (P03956 100-469): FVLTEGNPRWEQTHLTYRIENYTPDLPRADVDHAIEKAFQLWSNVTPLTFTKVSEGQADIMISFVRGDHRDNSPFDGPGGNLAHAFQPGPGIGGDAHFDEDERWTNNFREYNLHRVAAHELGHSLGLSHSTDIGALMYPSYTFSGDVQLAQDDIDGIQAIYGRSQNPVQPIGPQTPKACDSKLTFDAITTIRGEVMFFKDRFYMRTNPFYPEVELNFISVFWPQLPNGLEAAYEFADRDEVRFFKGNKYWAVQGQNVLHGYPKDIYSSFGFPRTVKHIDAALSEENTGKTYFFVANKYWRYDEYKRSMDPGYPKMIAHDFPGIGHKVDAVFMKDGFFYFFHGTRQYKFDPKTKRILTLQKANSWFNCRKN
Protocol: as §1, §2, §3

[4] = target: MMP-9 (Homo sapiens, UniProt P14780); assay: MMP-9 inhibition (thiopeptide or fluorescent peptide substrate); format: biochemical
MMP-9, sequence (P14780 107-707 limits assumed): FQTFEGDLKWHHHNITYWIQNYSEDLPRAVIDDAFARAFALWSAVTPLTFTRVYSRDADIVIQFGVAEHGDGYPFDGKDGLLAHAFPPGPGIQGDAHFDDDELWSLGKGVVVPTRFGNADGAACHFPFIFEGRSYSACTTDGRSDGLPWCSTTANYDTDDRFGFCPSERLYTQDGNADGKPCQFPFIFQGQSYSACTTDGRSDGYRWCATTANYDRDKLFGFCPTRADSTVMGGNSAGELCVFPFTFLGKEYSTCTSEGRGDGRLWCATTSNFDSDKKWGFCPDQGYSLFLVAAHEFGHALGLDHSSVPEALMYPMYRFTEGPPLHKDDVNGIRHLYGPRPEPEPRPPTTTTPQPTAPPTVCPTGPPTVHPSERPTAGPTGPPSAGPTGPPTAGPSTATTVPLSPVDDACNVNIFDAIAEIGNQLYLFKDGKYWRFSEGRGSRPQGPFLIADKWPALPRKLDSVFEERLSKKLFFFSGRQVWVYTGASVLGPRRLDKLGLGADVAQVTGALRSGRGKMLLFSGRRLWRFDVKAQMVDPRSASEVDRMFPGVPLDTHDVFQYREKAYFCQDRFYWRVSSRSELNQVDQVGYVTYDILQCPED
Protocol: as §1, §2, §3

[5] = target: TACE (Homo sapiens, UniProt P78536); assay: TACE inhibition (fluorescent peptidyl substrate); format: biochemical; settings: read-out: TACE IC50
TACE, sequence (P78536 215-824): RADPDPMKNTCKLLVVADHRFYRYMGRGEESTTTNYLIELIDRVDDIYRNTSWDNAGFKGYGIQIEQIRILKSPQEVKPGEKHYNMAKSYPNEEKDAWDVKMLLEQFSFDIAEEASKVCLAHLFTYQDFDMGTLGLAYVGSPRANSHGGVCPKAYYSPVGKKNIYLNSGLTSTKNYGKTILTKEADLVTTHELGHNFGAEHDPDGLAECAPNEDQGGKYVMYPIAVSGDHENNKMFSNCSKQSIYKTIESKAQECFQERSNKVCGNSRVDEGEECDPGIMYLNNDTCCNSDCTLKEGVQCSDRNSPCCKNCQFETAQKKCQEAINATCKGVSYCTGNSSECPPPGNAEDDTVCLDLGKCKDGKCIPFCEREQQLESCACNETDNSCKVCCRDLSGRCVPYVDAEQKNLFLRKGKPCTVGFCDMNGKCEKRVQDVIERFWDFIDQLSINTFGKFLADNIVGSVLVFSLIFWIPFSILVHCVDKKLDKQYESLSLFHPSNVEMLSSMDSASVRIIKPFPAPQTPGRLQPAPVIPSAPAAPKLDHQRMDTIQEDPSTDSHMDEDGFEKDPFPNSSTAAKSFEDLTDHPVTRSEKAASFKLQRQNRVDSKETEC
Protocol: Using 96-well black microtiter plates, each well receives a solution composed of 10 µL TACE (final concentration 1µg/mL), 70µL Tris buffer, pH 7.4 containing 10% glycerol (final concentration 10 mM), and 10 µL of test compound solution in DMSO (final concentration 1µM, DMSO concentration <1%) and incubated for 10 minutes at room temperature.
The reaction is read (excitation 340 nm, emission 420 nm) for 10 min. and the increase in fluorescence over time is plotted as a linear line. The slope of the line is calculated and represents the reaction rate.
The linearity of the reaction rate is confirmed (r^2 >0.85). The mean (x±sem) of the control rate is calculated and compared for statistical significance (p<0.05) with drug-treated rates using Dunnett's multiple comparison test.

[6] = THP-1, 3 µM, read-out: THP % Inhibition @ 3µM
[7] = THP-1, read-out: THP % inhibition @ 3 µM, 3 µM

Row | Compound | pIC50 [1] | pIC50 [3] | pIC50 [4] | pIC50 [5] | inhibition at 3 µM [2, 7] | further results
1 | CC#CCOc1ccc(S(=O)(=O)N2CCN(C)CCC2C(=O)NO)cc1 (stereo not drawn) [Example 293, 4-{[4-(2-Butynyloxy)phenyl]sulfonyl}-N-hydroxy-1-methyl-1,4-diazepane-5-carboxamide] | 7.68 | – | – | – | – | inhibition at 3 µM [2, 6]: 82%
2 | CC#CCOc1ccc(S(=O)(=O)N(C)C(C(=O)NO)C(C)(C)SCCCN(CC)CC)cc1 (stereo not drawn) [Example 148] | 8.28 | 7.60 | 8.32 | 7.06 | 87% | –
3 | 9-({[4-(2-Butynyloxy)phenyl]sulfonyl}-N-hydroxy-1-thia-4-azaspiro [5,5]undecane-5-carboxamide [Example 237] | 7.92 | 7.21 | – | 6.67 | – | THP % inhibition @ 3 µM [2]: 90%
4 | CC#CCOc1ccc(S(=O)(=O)N(C)C(C(=O)NO)C(C)(C)SCCN2CCCC2C(=O)OC)cc1 (stereo not drawn) [Example 145] | 8.60 | 7.74 | 8.15 | 6.96 | 83% | –
5 | CC#CCOc1ccc(S(=O)(=O)N(C)CC(=O)NO)cc1 [Example 17, 2-[(4-But-2-ynyloxy-benzenesulfonyl)-methyl-amino]-N-hydroxy-acetamide] | 7.00 | 5.72 | – | – | 33% | –
6 | CC#CCOc1ccc(S(=O)(=O)N2C[C@H](CN)SC(C)(C)[C@@H]2C(=O)NO)cc1 [Example 276, (3S,6S)-Cis-6-(aminomethyl)-4-{[4-(2-butynyloxy)phenyl]sulfonyl}-N-hydroxy-2,2-dimethyl-3-thiomorpholinecarboxamide hydrochloride] | – | – | 7.19 | – | – | inhibition at 3 µM [2, 6]: 94%
7 | CC#CCOc1ccc(S(=O)(=O)N(C)[C@@H](C)C(=O)NO)cc1 [Example 107, (2S)-2-[(4-But-2-ynyloxy-benzenesulfonyl)-methyl-amino]-N-hydroxy-propionamide] | – | 6.48 | 7.17 | 8.35 | – | –
8 | CC#CCOc1ccc(S(=O)(=O)N(C)C(CSCc2cccnc2)C(=O)NO)cc1 (stereo not drawn) [Example 155, 2-[(4-But-2-ynyloxy-benenesulfonyl)-methyl-amino]-N-hydroxy-3-(pyridin-3-ylmethylsulfanyl)-butyramide] | – | – | 7.85 | – | 93% | –
9 | CC#CCOc1ccc(S(=O)(=O)N(C)C(C(=O)NO)c2ccc(OCCCNC(=O)OCc3ccccc3)cc2)cc1 (stereo not drawn) [Example 196, Benzyl3-{4-[1-[{[4-(2-butynyloxy)phenyl]sulfonyl}(methyl)amino]-2-(hydroxyamino)-2-oxoethyl]phenoxy}propylcarbamate] | – | – | – | – | 87% | MMP-1 %@1 ([3]; @1 (concentration unit not given)): 25%@1
10 | CC#CCOc1ccc(S(=O)(=O)N(CC#CCN(CC)CC)C(C(=O)NO)C(C)C)cc1 (stereo not drawn) [Example 126, 2-{{[4-(2-Butynyloxy)phenyl]sulfonyl}[4-(diethylamino)-2-butynyl]amino}-N-hydroxy-3-methylbutanamide] | 7.44 | 6.67 | 6.83 | 7.14 | 93% | –
11 | CC#CCOc1ccc(S(=O)(=O)N(CC(=O)NO)Cc2cccnc2)cc1 [Example 23, 2-[(4-But-2-ynyloxy-benzenesulfonyl)-pyridin-3-ylmethyl-amino]-N-hydroxy-acetamide hydrochloride] | 7.70 | 5.94 | 7.40 | – | – | inhibition at 3 µM ([2]; THP-1, read-out: THP % inhibition @ 3 µM): 63%
12 | CC#CCSc1ccc(S(=O)(=O)N(C)CC(=O)NO)cc1 [Example 134, 2-[(4-But-2-ynylthiophenylsulfonyl)methylamino]-N-hydroxyacetamide] | 7.08 | 5.31 | 6.95 | – | 14% | –
13 | CN(CC(=O)NO)S(=O)(=O)c1ccc(OCC#Cc2ccc(Cl)cc2)cc1 [Example 132, 2-[[(4-{[3-(4-Chlorophenyl)-2-propynyl]oxy}phenyl)sulfonyl](methyl)amino]-N-hydroxyacetamide] | 5.95 | < 5.00 | 5.62 | 5.96 | 27% | –
14 | CC#CCOc1ccc(S(=O)(=O)N(CCCCN2CCN(C)CC2)C(C(=O)NO)C(C)C)cc1 (stereo not drawn) [Example 122, 2-{{[4-(2-Butynyloxy)phenyl]sulfonyl}[4-(4-methyl-1-piperazinyl)butyl]amino}-N-hydroxy-3-methylbutanamide] | – | – | – | 6.90 | 69% | –
15 | CC#CCOc1ccc(S(=O)(=O)N2CCSC(C)(C)C2C(=O)NO)cc1 (stereo not drawn) [235, 38] | – | 8.18 | – | 8.08 | 94% | –
16 | CC#CCOc1ccc(S(=O)(=O)N2CCN(C(=O)c3ccccc3)CCC2C(=O)NO)cc1 (stereo not drawn) [Example 289, 1-Benzoyl-4-{[4-(2-butynyloxy)phenyl]sulfonyl}-N-hydroxy-1,4-diazepane-5-carboxamide] | 8.40 | – | – | – | – | –
17 | CC#CCOc1ccc(S(=O)(=O)N2CCSC(CC)(CC)C2C(=O)NO)cc1 (stereo not drawn) [Example 238] | 8.17 | 7.42 | – | 6.64 | 73% | –
18 | C#CCNc1ccc(S(=O)(=O)N(C)CC(=O)NO)cc1 [Example 133, N-Hydroxy-2-(methyl{[4-(prop-2-ynylamino)phenyl]sulfonyl}amino)acetamide] | 6.12 | – | 5.82 | 6.92 | 8% | –
19 | 2-[(4-But-2-ynyloxy-benenesulfonyl)-methyl-amino]-N-hydroxy-3-methyl-3-ethylsulfanyl-butyramide [Example 150] | 8.03 | 7.60 | 7.70 | 7.29 | – | THP % inhibition @ 3 µM [2]: 86%
20 | CC#CCOc1ccc(S(=O)(=O)N(C)C(CSCc2ccccc2)C(=O)NO)cc1 (stereo not drawn) [Example 156, 3-(Benzylthio) -2-[[[4-(2-butynyloxy)phenyl]sulfonyl]methylamino] -N-hydroxypropanamide] | 8.35 | – | 7.96 | 8.32 | 75% | –
21 | CC#CCOc1ccc(S(=O)(=O)N2CC(CNC(=O)OC(C)(C)C)SC(C)(C)C2C(=O)NO)cc1 [Example 274, tert-Butyl{(2S,5S)-4-{[4-(2-butynyloxy)phenyl]sulfonyl}-5-[(hydroxyamino)carbonyl]-6,6-dimethylthiomorpholinyl}methylcarbamate] | – | – | 6.97 | – | – | pIC50 ([5]; Tables 11-14): 7.23; THP % inhibition @ 3 µM [2]: 84%
